What was measured:
[1] = system: reperfused brain after middle cerebral artery occlusion; assay: Autoradiography of brain reperfused after middle cerebral artery occlusion; assay type: in vivo, mouse; settings: 2 hours occlusion, 12 hours recovery, 1 mCi tail vein, brain extracted after 1 hour, compared with TTC staining, FIG. 11
[2] = system: inflamed tissue where hydrogen sulfide was generated (carrageenan hind paw); assay: SPECT-CT imaging of carrageenan-inflamed tissue where hydrogen sulfide is produced; assay type: in vivo; settings: mouse, 300 μCi tail vein 4 hours after 1% carrageenan, SPECT-CT after 1 hour, FIG. 10
Procedure: It has been reported that hydrogen sulfide was generated in the inflamed tissue induced by the administration of carrageenan (Li L, Bhatia M, Zhu Y Z, et al. FASEB J. (2005) 19:1196-1198; Bhatia M, Sidhapuriwala J, Moochhala S M, et al. Br J Pharmacol. (2005) 145:141-144.). Accordingly, the following experiment was performed to confirm whether the imaging of the inflamed tissue where hydrogen sulfide was generated was possible when the ^99mTc-alpha-hydroxy acid according to the present invention was administered.
30 μL of physiological saline containing 1% carrageenan was injected into the right hind paw of a mouse, and 30 μL of physiological saline was injected into the left hind paw of the mouse.

[3] = Reaction of ^99mTc-alpha-hydroxy acid with sodium sulfate, insoluble substances by ITLC; settings: 0.4 mM sodium sulfate in 0.2 M sodium phosphate buffer pH 7.4, 37° C., 15 minutes
Procedure: (§1) Particularly, the ^99mTc-alpha-hydroxy acid prepared in Example 1 was diluted 5 times with physiological saline, and then 100 μL of each diluent was taken, to which 100 μL of each of 0.2 M sodium phosphate buffer (pH 7.4) containing 0.4 mM NaHS, 4 mM glutathione, 0.4 mM cysteine, 0.4 mM sodium sulfite, 0.4 mM sodium sulfate, 0.4 mM sodium thiosulfate, and 0.4 mM NONOate (NO generating reagent) was added, followed by reaction at 37° C. for 15 minutes. Then, ITLC was developed with physiological saline to determine the percentage of the radioactivity remaining at the origin.

[4] = Reaction of ^99mTc-alpha-hydroxy acid with sodium sulfite, insoluble substances by ITLC; settings: 0.4 mM sodium sulfite in 0.2 M sodium phosphate buffer pH 7.4, 37° C., 15 minutes
Procedure: as §1

[5] = Reaction of ^99mTc-alpha-hydroxy acid with NO (NONOate), insoluble substances by ITLC; settings: 0.4 mM NONOate in 0.2 M sodium phosphate buffer pH 7.4, 37° C., 15 minutes
Procedure: as §1

[6] = Reaction of ^99mTc-alpha-hydroxy acid with glutathione, insoluble substances by ITLC; settings: 4 mM glutathione in 0.2 M sodium phosphate buffer pH 7.4, 37° C., 15 minutes
Procedure: as §1

[7] = ^99mTc-alpha-hydroxy acid in phosphate buffer alone, insoluble substances by ITLC; settings: 0.2 M sodium phosphate buffer pH 7.4 alone, 37° C., 15 minutes
Procedure: as §1

[8] = Reaction of ^99mTc-alpha-hydroxy acid with sodium thiosulfate, insoluble substances by ITLC; settings: 0.4 mM sodium thiosulfate in 0.2 M sodium phosphate buffer pH 7.4, 37° C., 15 minutes
Procedure: as §1

[9] = Reaction of ^99mTc-alpha-hydroxy acid with cysteine, insoluble substances by ITLC; settings: 0.4 mM cysteine in 0.2 M sodium phosphate buffer pH 7.4, 37° C., 15 minutes
Procedure: as §1

[10] = Reaction of ^99mTc-alpha-hydroxy acid with NaHS, insoluble substances by ITLC; settings: 0.4 mM NaHS in 0.2 M sodium phosphate buffer pH 7.4, 37° C., 15 minutes; radioactivity at origin, ITLC saline
Description: Then, ITLC was developed with physiological saline to determine the percentage of the radioactivity remaining at the origin.

hydrogen sulfide in paw = assay: Hydrogen sulfide concentration in inflamed area (DMPD/FeCl3, absorbance 665 nm); assay type: in vivo; settings: mouse paw, 4 hours after 30 μL 1% carrageenan, n=3
Procedure: In order to confirm that the concentration of hydrogen sulfide in the inflamed area was higher than the concentration of hydrogen sulfide in the normal area, it was measured as follows using a method described in the literature (A D Ang, A Konigstorfer, G I Giles, M Bhatia. Adv Biol Chem, 2012, 2:360-365). After 4 hours, the mouse was euthanized with carbon dioxide gas, and the ankle was cut and the weight was measured. 500 μL of 50 mM sodium carbonate buffer (pH 9) chilled with ice was added thereto and homogenized for 30 seconds gently, 1 minute 30 seconds moderately, and 30 seconds vigorously. After centrifugation at 1200×g for 5 minutes, the supernatant was obtained, to which 400 μL of a mixed solution of 350 μL of 1% zinc acetate and 50 μL of 1.5 M sodium hydroxide was added, followed by mixing well. After centrifugation at 1200×g for 5 minutes, the supernatant was discarded. To the precipitated pellet, 1 mL of distilled water saturated with nitrogen was added, which was mixed by vortexing for 1 minute. After centrifugation at 1200×g for 5 minutes, the supernatant was discarded. […] After reacting at room temperature for 15 minutes, absorbance was measured at 665 nm. A standard quantification curve was drawn with a standard sample measured by the same method, and then quantified.

Compound	distribution of radioactivity in brain sections [1]	radioactivity of the inflamed area versus area administered with physiological saline [2]	percentage of insoluble substances produced after reaction with Sodium sulfate [3] [%]	percentage of insoluble substances produced after reaction with Sodium sulfite [4] [%]	percentage of insoluble substances produced after reaction with NO [5] [%]	percentage of insoluble substances produced after reaction with Glutathione [6] [%]	percentage of insoluble substances produced in Buffer [7] [%]	percentage of insoluble substances produced after reaction with Thiosodium sulfate [8] [%]	percentage of insoluble substances produced after reaction with Cysteine [9] [%]	percentage of insoluble substances produced after reaction with NaHS [10] [%]	concentration of hydrogen sulfide in the paws (hydrogen sulfide in paw) [µM]
OC[C@H]1OC(O)[C@H]([18F])[C@@H](O)[C@@H]1O (stereo partly shown) [[^18F] FDG, reference compound]	almost overlapped with the red area stained by TTC	–	–	–	–	–	–	–	–	–	–
O=C1[O][99Tc-]2(=[O])([O]C(=O)C(C(O)C(O)C(O)C(O)CO)[O]2)[O]C1C(O)C(O)C(O)C(O)CO (stereo not shown) [^99mTc-glucoheptonate]	–	clearly higher	–	–	–	–	–	–	–	–	–
O=C1[O][99Tc-]2(=[O])([O]C(=O)[C@@H]([C@@H](O)[C@H](O)[C@H](O)CO)[O]2)[O][C@@H]1[C@@H](O)[C@H](O)[C@H](O)CO [^99mTc-gluconate]	ingested at the boundary area rather than completely dead brain tissues and the normal brain tissues	clearly higher	7.9 ± 1.5	6.4 ± 0.7	6.1 ± 1.0	12.0 ± 2.4	8.7 ± 1.8	6.5 ± 1.0	5.1 ± 0.6	–	–
^99mTc-citrate	–	–	8.0 ± 0.5	7.8 ± 0.7	5.6 ± 0.4	7.5 ± 1.7	4.0 ± 0.1	5.5 ± 0.1	2.1 ± 0.2	8.3±1.0	–
^99mTc-glucarate	–	–	4.6 ± 0.5	5.5 ± 0.8	4.7 ± 0.7	13.4 ± 2.7	4.6 ± 0.5	5.6 ± 0.3	6.4 ± 1.7	37.0±4.7	–
carrageenan	–	–	–	–	–	–	–	–	–	–	43.7 ± 3.5
